Test results from patent US20260070906A1, “IMIDAZO[4,5-C]PYRIDINE COMPOUNDS FOR THE TREATMENT OF CANCER” (Hoffmann-La Roche Inc., priority 2023, published 2026).

Columns and labels:
human TLR7 = target: T1, human TLR7 (Homo sapiens, UniProt Q9NYK1); experiment: HEK293-Blue-hTLR7 cells assay (NF-κB SEAP reporter); assay type: cell-based; settings: 20 hrs incubation, agonism
T1 construct: host or cells: HEK293-Blue-hTLR7 (HEK293)
T1 sequence (Q9NYK1 27-1049): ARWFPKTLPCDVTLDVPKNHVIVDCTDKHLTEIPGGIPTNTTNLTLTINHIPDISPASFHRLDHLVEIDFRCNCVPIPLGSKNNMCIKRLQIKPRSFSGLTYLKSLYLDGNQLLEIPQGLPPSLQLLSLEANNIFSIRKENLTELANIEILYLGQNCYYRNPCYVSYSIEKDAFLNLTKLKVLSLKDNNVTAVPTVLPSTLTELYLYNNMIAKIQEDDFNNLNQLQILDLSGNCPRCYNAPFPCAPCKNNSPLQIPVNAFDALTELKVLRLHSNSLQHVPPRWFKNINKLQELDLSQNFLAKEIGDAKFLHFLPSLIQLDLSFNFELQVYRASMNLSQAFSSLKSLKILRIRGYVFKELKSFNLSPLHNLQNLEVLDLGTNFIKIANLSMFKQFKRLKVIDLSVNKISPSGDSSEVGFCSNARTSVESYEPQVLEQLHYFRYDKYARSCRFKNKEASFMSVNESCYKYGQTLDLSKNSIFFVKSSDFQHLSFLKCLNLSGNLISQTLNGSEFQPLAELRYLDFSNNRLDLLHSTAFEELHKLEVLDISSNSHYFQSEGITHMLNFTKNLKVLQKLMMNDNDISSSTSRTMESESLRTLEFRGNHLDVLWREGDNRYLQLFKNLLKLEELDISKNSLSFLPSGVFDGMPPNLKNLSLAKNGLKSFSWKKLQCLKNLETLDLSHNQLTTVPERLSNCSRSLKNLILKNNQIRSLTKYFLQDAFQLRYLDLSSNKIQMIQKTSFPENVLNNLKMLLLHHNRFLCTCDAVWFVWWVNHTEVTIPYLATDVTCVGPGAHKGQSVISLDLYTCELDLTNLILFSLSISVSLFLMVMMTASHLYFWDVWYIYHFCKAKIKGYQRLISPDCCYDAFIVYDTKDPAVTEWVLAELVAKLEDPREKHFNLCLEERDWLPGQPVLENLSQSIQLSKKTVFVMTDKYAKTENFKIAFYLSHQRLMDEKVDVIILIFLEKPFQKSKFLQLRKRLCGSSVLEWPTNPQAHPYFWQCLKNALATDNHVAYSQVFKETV
Description: A stable HEK293-Blue-hTLR7 cell line was purchased from InvivoGen (Cat. #: hkb-htlr7, San Diego, California, USA). These cells were designed for studying the stimulation of human TLR7 by monitoring the activation of NF-κB. A SEAP (secreted embryonic alkaline phosphatase) reporter gene was placed under the control of the IFN-β minimal promoter fused to five NF-κB and AP-1-binding sites. The SEAP was induced by activating NF-κB and AP-1 via stimulating HEK-Blue hTLR7 cells with TLR7 ligands. Therefore the reporter expression was regulated by the NF-κB promoter upon stimulation of human TLR7 for 20 hrs. The cell culture supernatant SEAP reporter activity was determined using QUANTI-Blue™ kit (Cat. #: rep-qbl, Invivogen, San Diego, Ca, USA) at a wavelength of 650 nm, a detection medium that turns purple or blue in the presence of alkaline phosphatase.
HEK293-Blue-hTLR7 cells were incubated at a density of 250,000˜450,000 cells/mL in a volume of 180 μL in a 96-well plate in Dulbecco's Modified Eagle's medium (DMEM) containing 4.5 g/L glucose, 100 U/mL penicillin, 100 μg/mL streptomycin, 100 μg/mL Normocin, 1% (V/V) GlutaMAX™, 10% (V/V) heat-inactivated fetal bovine serum for 24 hrs. Then the HEK293-Blue-hTLR-7 cells were incubated with addition of 20 μL test compound in a serial dilution in the presence of final DMSO at 1% and perform incubation under 37° C. in a CO2 incubator for 20 hrs. Then 20 μL of the supernatant from each well was incubated with 180 μL Quanti-blue substrate solution at 37° C. for 1 hours and the absorbance was read at 620-655 nm using a spectrophotometer. The signalling pathway that TLR7 activation leads to downstream NF-κB activation has been widely accepted, and therefore similar reporter assay was also widely used for evaluating TLR7 agonist (Tsuneyasu Kaisho and Takashi Tanaka, Trends in Immunology, Volume 29, Issue 7, July 2008, […]; Hiroaki Hemmi et al, Nature Immunology 3, 196-200 (2002)).

human TLR8 = target: T2, human TLR8 (Homo sapiens, UniProt Q9NR97); experiment: HEK293-Blue-hTLR8 cells assay (NF-κB SEAP reporter); assay type: cell-based; settings: 20 hours incubation, agonism
T2 construct: host or cells: HEK293-Blue-hTLR8 (HEK293)
T2 sequence (Q9NR97 27-1041): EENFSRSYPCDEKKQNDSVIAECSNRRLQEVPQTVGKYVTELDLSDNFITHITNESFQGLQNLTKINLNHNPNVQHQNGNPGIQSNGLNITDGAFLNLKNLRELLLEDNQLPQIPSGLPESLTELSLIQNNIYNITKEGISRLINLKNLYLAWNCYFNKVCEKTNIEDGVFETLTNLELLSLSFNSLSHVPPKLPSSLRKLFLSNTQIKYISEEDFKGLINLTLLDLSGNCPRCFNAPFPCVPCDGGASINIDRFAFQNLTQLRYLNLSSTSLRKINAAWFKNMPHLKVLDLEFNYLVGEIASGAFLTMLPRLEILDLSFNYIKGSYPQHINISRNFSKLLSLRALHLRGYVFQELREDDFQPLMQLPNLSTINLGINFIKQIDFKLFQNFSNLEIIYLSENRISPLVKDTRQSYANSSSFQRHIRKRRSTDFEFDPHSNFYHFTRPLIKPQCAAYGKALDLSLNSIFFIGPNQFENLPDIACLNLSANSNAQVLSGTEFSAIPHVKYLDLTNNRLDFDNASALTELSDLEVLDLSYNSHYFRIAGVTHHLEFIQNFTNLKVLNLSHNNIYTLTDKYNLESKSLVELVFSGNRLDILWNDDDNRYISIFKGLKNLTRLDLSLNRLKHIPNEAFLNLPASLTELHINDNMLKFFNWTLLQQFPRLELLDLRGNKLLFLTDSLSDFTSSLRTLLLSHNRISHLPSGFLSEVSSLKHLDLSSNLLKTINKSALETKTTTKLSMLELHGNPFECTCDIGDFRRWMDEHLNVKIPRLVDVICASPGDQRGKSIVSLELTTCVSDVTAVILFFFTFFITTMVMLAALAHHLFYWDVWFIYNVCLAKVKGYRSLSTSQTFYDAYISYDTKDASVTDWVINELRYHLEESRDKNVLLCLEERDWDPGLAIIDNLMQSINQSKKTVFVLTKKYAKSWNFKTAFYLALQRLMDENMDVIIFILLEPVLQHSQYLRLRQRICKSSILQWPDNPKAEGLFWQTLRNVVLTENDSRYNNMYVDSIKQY
Description: A stable HEK293-Blue-hTLR8 cell line was purchased from InvivoGen (Cat. #: hkb-htlr8, San Diego, California, USA). These cells were designed for studying the stimulation of human TLR8 by monitoring the activation of NF-κB. A SEAP (secreted embryonic alkaline phosphatase) reporter gene was placed under the control of the IFN-β minimal promoter fused to five NF-κB and AP-1-binding sites. The SEAP was induced by activating NF-κB and AP-1 via stimulating HEK-Blue hTLR8 cells with TLR8 ligands. Therefore the reporter expression was regulated by the NF-κB promoter upon stimulation of human TLR8. The cell culture supernatant SEAP reporter activity was determined using QUANTI-Blue™ kit (Cat. #: rep-qbl, Invivogen, San Diego, Ca, USA) at a wavelength of 650 nm, a detection medium that turns purple to blue in the presence of alkaline phosphatase.
HEK293-Blue-hTLR8 cells were incubated at a density of 250,000-450,000 cells/mL in a volume of 180 μL in a 96-well plate in Dulbecco's Modified Eagle's medium (DMEM) containing 4.5 g/L glucose, 100 U/mL penicillin, 100 μg/mL streptomycin, 100 μg/mL Normocin, 1% (V/V) GlutaMAX™, 10% (v/v) heat-inactivated fetal bovine serum for 24 hours. Then the HEK293-Blue-hTLR8 cells were incubated with addition of 20 μL test compound in a serial dilution in the presence of final DMSO at 1% and perform incubation under 37° C. in a CO2 incubator for 20 hours. Then 20 μL of the supernatant from each well was incubated with 180 μL Quanti-blue substrate solution at 37° C. for 1 hours and the absorbance was read at 620-655 nm using a spectrophotometer. The signalling pathway that TLR8 activation leads to downstream NF-κB activation has been widely accepted, and therefore similar reporter assay was also widely used for evaluating TLR8 agonist.

## CCCCc1nc2c(N)nc(C)c(Sc3ccc(CN(C)C)cc3)c2[nH]1 [Example 14, 2-butyl-7-[4-[(dimethylamino)methyl]phenyl]sulfanyl-6-methyl-1H-imidazo[4,5-c]pyridin-4-amine]
Human TLR7
  EC50: 15 nM
Human TLR8
  EC50: 14 nM

## CCCCc1nc2c(N)nc(C)c(SCCc3ccc(CN(C)C)cc3)c2[nH]1 [Example 15, 2-butyl-7-[2-[4-[(dimethylamino)methyl]phenyl]ethylsulfanyl]-6-methyl-1H-imidazo[4,5-c]pyridin-4-amine]
Human TLR7
  EC50: 6 nM
Human TLR8
  EC50: 22 nM

## CCOCc1nc2c(N)nc(C)c(Sc3ccc(CN(C)C)c(C)c3O)c2[nH]1 [Example 16, 6-[[4-amino-2-(ethoxymethyl)-6-methyl-1H-imidazo[4,5-c]pyridin-7-yl]sulfanyl]-3-[(dimethylamino)methyl]-2-methyl-phenol]
Human TLR7
  EC50: 31 nM
Human TLR8
  EC50: 22 nM

## CCOCc1nc2c(N)nc(C)c(Sc3ccc(CN(CC)CC)cc3O)c2[nH]1 [Example 17, 2-[[4-amino-2-(ethoxymethyl)-6-methyl-1H-imidazo[4,5-c]pyridin-7-yl]sulfanyl]-5-(diethylaminomethyl)phenol]
Human TLR7
  EC50: 24 nM
Human TLR8
  EC50: 56 nM

## CCOCc1nc2c(N)nc(C)c(Sc3ccc(CN(C)C)c4cc[nH]c34)c2[nH]1 [Example 18, 7-[[4-[(dimethylamino)methyl]-1H-indol-7-yl]sulfanyl]-2-(ethoxymethyl)-6-methyl-1H-imidazo[4,5-c]pyridin-4-amine]
Human TLR7
  EC50: 9 nM
Human TLR8
  EC50: 19 nM

## CCOCc1nc2c(N)nc(C)c(Sc3ccc(CN(C)C)c4cn[nH]c34)c2[nH]1 [Example 19, 7-[[4-[(dimethylamino)methyl]-1H-indazol-7-yl]sulfanyl]-2-(ethoxymethyl)-6-methyl-1H-imidazo[4,5-c]pyridin-4-amine]
Human TLR7
  EC50: 48 nM
Human TLR8
  EC50: 43 nM

## CCOCc1nc2c(N)nc(C)c(Sc3ccc(CN(C)C)cc3N)c2[nH]1 [Example 20, 7-[2-amino-4-[(dimethylamino)methyl]phenyl]sulfanyl-2-(ethoxymethyl)-6-methyl-LH-imidazo[4,5-c]pyridin-4-amine]
Human TLR7
  EC50: 22 nM
Human TLR8
  EC50: 40 nM

## CCCCc1nc2c(N)nc(C)c(Sc3ccc(CN(C)C)cc3O)c2[nH]1 [Example 21, 2-[(4-amino-2-butyl-6-methyl-1H-imidazo[4,5-c]pyridin-7-yl)sulfanyl]-5-[(dimethylamino)methyl]phenol]
Human TLR7
  EC50: 14 nM
Human TLR8
  EC50: 43 nM

## CCOCc1nc2c(N)nc(C)c(Sc3ccc(CN4CCCC4)cc3O)c2[nH]1 [Example 22, 2-[[4-amino-2-(ethoxymethyl)-6-methyl-1H-imidazo[4,5-c]pyridin-7-yl]sulfanyl]-5-(pyrrolidin-1-ylmethyl)phenol]
Human TLR7
  EC50: 28 nM
Human TLR8
  EC50: 37 nM

## CCOCc1nc2c(N)nc(C)c(Sc3cc(C)c(CN(C)C)cc3O)c2[nH]1 [Example 23, 2-[[4-amino-2-(ethoxymethyl)-6-methyl-1H-imidazo[4,5-c]pyridin-7-yl]sulfanyl]-5-[(dimethylamino)methyl]-4-methyl-phenol]
Human TLR7
  EC50: 25 nM
Human TLR8
  EC50: 82 nM

## CCOCc1nc2c(N)nc(C)c(Sc3ccc(C(C)N(C)C)cc3O)c2[nH]1 (stereo not shown) [Example 24, 2-[[4-amino-2-(ethoxymethyl)-6-methyl-1H-imidazo[4,5-c]pyridin-7-yl]sulfanyl]-5-[1-(dimethylamino)ethyl]phenol]
Human TLR7
  EC50: 22 nM
Human TLR8
  EC50: 56 nM

## CCOCc1nc2c(N)nc(C)c(Sc3cc(O)c(CN(C)C)cc3C)c2[nH]1 [Example 25, 5-[[4-amino-2-(ethoxymethyl)-6-methyl-1H-imidazo[4,5-c]pyridin-7-yl]sulfanyl]-2-[(dimethylamino)methyl]-4-methyl-phenol]
Human TLR7
  EC50: 33 nM
Human TLR8
  EC50: 61 nM

## CCOCc1nc2c(N)nc(C)c(Sc3ccc(CN4CCCC4)cc3N)c2[nH]1 [Example 26, 7-[2-amino-4-(pyrrolidin-1-ylmethyl)phenyl]sulfanyl-2-(ethoxymethyl)-6-methyl-1H-imidazo[4,5-c]pyridin-4-amine]
Human TLR7
  EC50: 21 nM
Human TLR8
  EC50: 15 nM

## CCOCc1nc2c(N)nc(C)c(Sc3ccc(CN4CCN(C)CC4)cc3N)c2[nH]1 [Example 27, 7-[2-amino-4-[(4-methylpiperazin-1-yl)methyl]phenyl]sulfanyl-2-(ethoxymethyl)-6-methyl-1H-imidazo[4,5-c]pyridin-4-amine]
Human TLR7
  EC50: 39 nM
Human TLR8
  EC50: 52 nM
